The results in this text go back to patent US20230250096A1, “SUBSTITUTED PHENYL-1H-PYRROLO[2,3-c] PYRIDINE DERIVATIVES” (Janssen Pharmaceutica NV, priority 2021, published 2023).

Structures are written as SMILES. Like-named read-outs stand apart in the source and are kept apart here. Some results are limits rather than exact numbers.

Test [1] has as its target T1, menin/MLL (terbium chelate-labeled menin, FITC-MBM1 peptide) (Homo sapiens, UniProt O00255, T541A).
T1 construct: Menin (a.a 1-610-6xhis tag, 2.3 mg/mL in 20 mM Hepes)
T1 sequence (O00255 with tags, fused parts or gaps T541A): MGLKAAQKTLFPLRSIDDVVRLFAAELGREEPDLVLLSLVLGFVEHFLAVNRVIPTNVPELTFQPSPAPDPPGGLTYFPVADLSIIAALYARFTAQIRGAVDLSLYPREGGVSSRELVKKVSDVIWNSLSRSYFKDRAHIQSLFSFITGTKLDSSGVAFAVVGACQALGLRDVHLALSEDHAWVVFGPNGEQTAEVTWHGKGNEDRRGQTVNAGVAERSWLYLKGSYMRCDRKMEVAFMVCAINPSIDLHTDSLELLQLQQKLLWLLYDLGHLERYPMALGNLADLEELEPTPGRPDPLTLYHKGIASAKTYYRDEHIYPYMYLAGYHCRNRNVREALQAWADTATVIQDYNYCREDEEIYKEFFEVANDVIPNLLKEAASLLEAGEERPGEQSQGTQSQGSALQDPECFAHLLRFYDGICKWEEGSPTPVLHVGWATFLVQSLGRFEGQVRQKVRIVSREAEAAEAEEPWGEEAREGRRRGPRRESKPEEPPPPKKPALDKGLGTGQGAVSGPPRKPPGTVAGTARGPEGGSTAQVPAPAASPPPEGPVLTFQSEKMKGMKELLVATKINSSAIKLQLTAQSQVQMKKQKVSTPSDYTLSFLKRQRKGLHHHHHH
Briefly: Menin/MLL homogenous time-resolved fluorescence (HTRF) assay. The class given is binding. The following applies: 30 min incubation. In short, it runs like this: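 Terbium-labeled menin (a.a. 1-610, His-tagged; […]) pre-incubated 30 min with compound, then 75 nM FITC-MBM1 peptide added for 15 min at ambient temperature in Tris pH 7.5 buffer, 0.5% DMSO. HTRF 520/490 nm ratio read; IC50 from 11-point four-fold titrations, typically from 10 μM.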

The test system of test [2] is MOLM14 cells. Briefly: Proliferation assay (spheroid confluence, 8 days), MOLM14. To be noted: read-out: spheroid assay_MOLM14 IC50. The class given is cell-based, human. As to the method: The anti-proliferative effect of menin/MLL protein/protein interaction inhibitor test compounds was assessed in human leukemia cell lines. The cell line MOLM14 harbors a MLL translocation and expresses the MLL fusion protein MLL-AF9, respectively, as well as the wildtype protein from the second allele. OCI-AML3 cells that carry the NPM1c gene mutation were also tested. […] KO-52 was used as a control cell line containing two MLL (KMT2A) wildtype alleles in order to exclude compounds that display general cytotoxic effects.
MOLM14 cells were cultured in RPMI-1640 (Sigma Aldrich) supplemented with 10% heat-inactivated fetal bovine serum (HyClone), 2 mM L-glutamine (Sigma Aldrich) and 50 μg/ml gentamycin (Gibco). KO-52 and OCI-AML3 cell lines were propagated in alpha-MEM (Sigma Aldrich) supplemented with 20% heat-inactivated fetal bovine serum (HyClone), 2 mM L-glutamine (Sigma Aldrich) and 50 μg/ml gentamycin (Gibco).
In order to assess the anti-proliferative effects, 200 MOLM14 cells, 200 OCI-AML3 cells or 300 KO-52 cells were seeded in 200 μl media per well in 96-well round bottom, ultra-low attachment plates (Costar, catalogue number 7007). Cell seeding numbers were chosen based on growth curves to ensure linear growth throughout the experiment. Test compounds were added at different concentrations and the DMSO content was normalized to 0.3%. Cells were incubated for 8 days at 37° C. and 5% CO2. Spheroid like growth was measured in real-time by live-cell imaging (IncuCyteZOOM, Essenbio, 4×objective) acquiring images at day 8. Confluence (%) as a measure of spheroid size was determined using an integrated analysis tool.
In order to determine the effect of the test compounds over time, the confluence in each well as a measure of spheroid size, was calculated. Confluence of the highest dose of a reference compound was used as baseline for the LC (Low control) and the confluence of DMSO treated cells was used as 0% cytotoxicity (High Control, HC).
Absolute IC50 values were calculated as percent change in confluence as follows:
LC=Low Control: cells treated with e.g. 1 μM of the cytotoxic agent staurosporin, or e.g. cells treated with a high concentration of an alternative reference compound
HC=High Control: Mean confluence (%) (DMSO treated cells)
% Effect=100−(100*(Sample−LC)/(HC−LC))
GraphPad Prism (version 7.00) was used to calculate the IC50. Dose-response equation was used for the plot of % Effect vs Log10 compound concentration with a variable slope and fixing the maximum to 100% and the minimum to 0%.

Test [3] relates to MEIS1 mRNA expression. The test can be described thus: MEIS1 mRNA expression assay (Quantigene Singleplex) in MOLM14 cells. The class given is cell-based, human. The following applies: 48 hours incubation. In short, it runs like this:
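MOLM14 cells, 3,750/well, exposed to increasing compound concentrations for 48 h. MEIS1 mRNA measured by QuantiGene Singleplex branched-DNA hybridization (lysis 45 min, hybridization 18–22 h, both 55 °C), normalized to RPL28. IC50 fitted to background-corrected fold change versus DMSO.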

As to `COCC1CCCN1C(=O)c1cc(F)ccc1-n1cc(C[C@@H]2CCN(CC3CCN(C(C)=O)CC3)C2)c2c(C)cncc21` (stereo partly drawn) [Compound 321], the IC50 in test [1] stood at 0.257 nM; in test [2] (Homo sapiens, MOLM-14, MOLM14), 232 nM; in test [3] (Homo sapiens, MOLM-14, 48 h), 413 nM.
The matching figures for `Cc1cncc2c1c(CC1CN(CC3CCOCC3)C1)cn2-c1ccc(F)cc1[S@@](=N)(=O)C(C)C` (single isomer, unassigned) [Compound 167b]: 0.118 nM, 99 nM and 117 nM.
The matching figures for `Cc1cncc2c1c(C[C@@H]1CCN(CC3CCN(C)C(=O)C3)C1)cn2-c1ccc(F)cc1C(=O)N(C)C(C)C` (mixture of isomers) [Compound 171]: 0.581 nM, 337 nM and > 1000 nM.
Take `CN=[S@](=O)(c1cc(F)ccc1-n1cc(CC2CN(CC3CCOCC3)C2)c2c(C)cncc21)C(C)C` (single isomer, unassigned) [Compound 166a]: the IC50 in test [1] stood at 0.084 nM; in test [2] (Homo sapiens, MOLM-14, MOLM14) it was 49 nM; in test [3] (Homo sapiens, MOLM-14, 48 h) it was 38 nM.
The matching figures for `CC(=O)N1CCC(O)(CN2CC[C@@H](Cc3cn(-c4ccc(F)cc4C(=O)N(C)C(C)C)c4cncc(C)c34)C2)CC1` [Compound 177]: 0.109 nM, 35 nM and 268 nM.
The matching figures for `Cc1cncc2c1c(CC1CN(CC3CCOCC3)C1)cn2-c1ccc(F)cc1[S@](=N)(=O)C(C)C` (single isomer, unassigned) [Compound 167a]: 0.19 nM, 210 nM and > 1000 nM.
On to `CNC(=O)N1CCC(CN2CC[C@H](Cc3cn(-c4ccc(F)cc4C(=O)N(C)C(C)C)c4cncc(C)c34)C2)CC1` [Compound 168], for which the values for the IC50 in test [1], in test [2] (MOLM14) and in test [3] were 0.1 nM, 8 nM and 16 nM, respectively.
Turning to `COC(=O)[C@H]1CC[C@H](CN2CC[C@@H](Cc3cn(-c4ccc(F)cc4C(=O)N(C)C(C)C)c4cncc(C)c34)C2)CC1` [Compound 154], the IC50 in test [1] was 0.14 nM; in test [2] (Homo sapiens, MOLM-14, MOLM14), 91 nM; in test [3] (Homo sapiens, MOLM-14, 48 h) it was 244 nM.
In the case of `CC(=O)N1CCC(CN2CC[C@@H](Cc3cn(-c4ccc(F)cc4C(=O)N(C)C(C)C)c4cncc(C)c34)C2)CC1` [Compound 51], the IC50 in test [1] came out at 0.042 nM; in test [2] (Homo sapiens, MOLM-14, MOLM14), 8 nM.
With `[2H]C([2H])([2H])N(C(=O)c1cc(F)ccc1-n1cc(C[C@@H]2CCN(CC3CCN(C(C)=O)CC3)C2)c2c(C)cncc21)C(C)C` [Compound 314], the IC50 worked out at 0.055 nM in test [1]; 6 nM in test [2] (Homo sapiens, MOLM-14, MOLM14); 19 nM in test [3] (Homo sapiens, MOLM-14, 48 h).
The corresponding values for `Cc1cncc2c1c(C[C@@H]1CCN(CC3CCOCC3)C1)cn2-c1ccc(F)cc1C(=O)N1C[C@H](O)C[C@H]1C` [Compound 359] are 0.166 nM, 79 nM and 358 nM.
`CNC(=O)[C@H]1CC[C@H](CN2CC(C)(Cc3cn(-c4ccc(F)cc4C(=O)N(C)C(C)C)c4cncc(C)c34)C2)CC1` [Compound 140]: the IC50 in test [1] was ~0.17 nM; in test [2] (Homo sapiens, MOLM-14, MOLM14), 15 nM; in test [3] (Homo sapiens, MOLM-14, 48 h) it was 49 nM.
The matching figures for `CC(=O)N1CCC(CN2CC[C@@H](Cc3cn(-c4ccc(F)cc4C(=O)N4CCC[C@H]4CO)c4cncc(C)c34)C2)CC1` [Compound 323]: 0.08 nM, 142 nM and ~146 nM.
The corresponding values for `CN=[S@@](=O)(c1cc(F)ccc1-n1cc(C[C@H]2CCN(CC3CCN(C(C)=O)CC3)C2)c2c(C)cncc21)C(C)C` (single isomer, unassigned) [Compound 128d] are 0.104 nM, 89 nM and 419 nM.
The matching figures for `Cc1cncc2c1c(C[C@@H]1CCN(C[C@H]3CCNC(=O)CC3)C1)cn2-c1ccc(F)cc1C(=O)N(C)C(C)C` (single isomer, unassigned) [Compound 169a]: 0.061 nM, 17 nM and 15 nM.
Consider `Cc1cncc2c1c(C[C@@H]1CCN([C@@H](CN(C)C)C3CCOCC3)C1)cn2-c1ccc(F)cc1C(=O)N(C)C(C)C` (single isomer, unassigned) [Compound 240a], for which the IC50 in test [1] is 0.407 nM; in test [3] (Homo sapiens, MOLM-14, 48 h), 291 nM.
The matching figures for `Cc1cncc2c1c(CC1CN(CC3CCOCC3)C1)cn2-c1ccc(F)cc1C(=O)N(C)C1CCOC1` (stereo not drawn) [Compound 269]: 1.7 nM and 18 nM.
The corresponding values for `Cc1cncc2c1c(CC1CN(CC3CCCO3)C1)cn2-c1ccc(F)cc1C(=O)N(C)C(C)C` (stereo not drawn) [Compound 288] are 0.059 nM and 43 nM.
`Cc1cncc2c1c(CC1CN([C@@H](C(C)C)[C@H]3C[C@H](N4CCC(S(C)(=O)=O)CC4)C3)C1)cn2-c1ccc(F)cc1C(=O)N(C)C(C)C` [Compound 33b]: the IC50 in test [1] was 0.03 nM; in test [3] (Homo sapiens, MOLM-14, 48 h) it was 23 nM.
As for `Cc1cncc2c1c(C[C@H]1CCN(CC3COC3)C1)cn2-c1ccc(F)cc1C(=O)N(C)C(C)C` (single isomer, unassigned) [Compound 47], the IC50 in test [1] came out at 0.042 nM; in test [3] (Homo sapiens, MOLM-14, 48 h), 55 nM.
The matching figures for `CC(=O)N1C[C@@H]2CN([C@H]3C[C@H](C(C(C)C)N4CC(Cc5cn(-c6ccc(F)cc6C(=O)N(C)C(C)C)c6cncc(Cl)c56)C4)C3)C[C@H]2C1` (single isomer, unassigned) [Compound 40b]: 0.182 nM and ~680 nM.
`CC(=O)N1CCN([C@H]2C[C@@H]([C@H](C(C)C)N3CC(Cc4cn(-c5ccc(F)cc5C(=O)N(C)C(C)C)c5cncc(C)c45)C3)C2)CC1` (single isomer, unassigned) [Compound 32b]: the IC50 was 0.472 nM in test [1] and > 1000 nM in test [3] (Homo sapiens, MOLM-14, 48 h).
The matching figures for `Cc1cncc2c1c(C[C@@H]1CCN(C(C)C3CCOCC3)C1)cn2-c1ccc(F)cc1C(=O)N(C)C(C)C` (mixture of isomers) [Compound 48]: 0.06 nM and 20 nM.
The matching figures for `COCC[C@@H](C1CCOCC1)N1CC[C@@H](Cc2cn(-c3ccc(F)cc3C(=O)N(C)C(C)C)c3cncc(C)c23)C1` (single isomer, unassigned) [Compound 252b]: 0.25 nM and 315 nM.
The corresponding values for `Cc1cncc2c1c(CC1CCN(C[C@@H]3CCC(=O)N3)CC1)cn2-c1ccc(F)cc1C(=O)N(C)C(C)C` [Compound 105] are 0.728 nM and > 1000 nM.
`CC(=O)NC(C)CN1CCC(Cc2cn(-c3ccc(F)cc3C(=O)N(C)C(C)C)c3cncc(C)c23)C1` (single isomer, unassigned) [Compound 103]: the IC50 in test [1] is 3.27 nM; in test [3] it was ~5120 nM.
